Test results: the kinase profiling compilation of Christmann-Franck et al. (2016)

Key:
Settings in all cases: compound 10.0 µM
MAP4K5 (human) = MAP4K5 (human) (UniProt Q9Y4K4)
FES (human) = FES (human) (UniProt P07332)
CDK4 CCND1 (human) = CDK4 CCND1 (human) (UniProt P11802+P24385)
PAK6 (human) = PAK6 (human) (UniProt Q9NQU5)
STK24 (human) = STK24 (human) (UniProt Q9Y6E0)
MKNK1 (human) = MKNK1 (human) (UniProt Q9BUB5)
CSNK1G3 (human) = CSNK1G3 (human) (UniProt Q9Y6M4)
PKN2 (human) = PKN2 (human) (UniProt Q16513)
ADRBK1 (human) = ADRBK1 (human) (UniProt P25098)
STK25 (human) = STK25 (human) (UniProt O00506)
STK25 (human), sequence (O00506 whole entry, looked up): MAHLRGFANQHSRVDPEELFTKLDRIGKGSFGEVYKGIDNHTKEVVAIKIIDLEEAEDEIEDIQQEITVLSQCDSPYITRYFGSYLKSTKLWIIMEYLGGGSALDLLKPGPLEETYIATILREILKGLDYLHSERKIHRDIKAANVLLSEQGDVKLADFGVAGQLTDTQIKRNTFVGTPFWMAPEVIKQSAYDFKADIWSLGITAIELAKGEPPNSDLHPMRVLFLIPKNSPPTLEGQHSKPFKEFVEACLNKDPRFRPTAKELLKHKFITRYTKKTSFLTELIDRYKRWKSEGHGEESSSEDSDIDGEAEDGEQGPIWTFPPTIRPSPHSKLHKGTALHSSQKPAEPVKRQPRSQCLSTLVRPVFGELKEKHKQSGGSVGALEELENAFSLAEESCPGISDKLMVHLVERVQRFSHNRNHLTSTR

YES1 (human) = YES1 (human) (UniProt P07947)
PRKCA (human) = PRKCA (human) (UniProt P17252)
OXSR1 (human) = OXSR1 (human) (UniProt O95747)
OXSR1 (human), sequence (O95747 whole entry, looked up): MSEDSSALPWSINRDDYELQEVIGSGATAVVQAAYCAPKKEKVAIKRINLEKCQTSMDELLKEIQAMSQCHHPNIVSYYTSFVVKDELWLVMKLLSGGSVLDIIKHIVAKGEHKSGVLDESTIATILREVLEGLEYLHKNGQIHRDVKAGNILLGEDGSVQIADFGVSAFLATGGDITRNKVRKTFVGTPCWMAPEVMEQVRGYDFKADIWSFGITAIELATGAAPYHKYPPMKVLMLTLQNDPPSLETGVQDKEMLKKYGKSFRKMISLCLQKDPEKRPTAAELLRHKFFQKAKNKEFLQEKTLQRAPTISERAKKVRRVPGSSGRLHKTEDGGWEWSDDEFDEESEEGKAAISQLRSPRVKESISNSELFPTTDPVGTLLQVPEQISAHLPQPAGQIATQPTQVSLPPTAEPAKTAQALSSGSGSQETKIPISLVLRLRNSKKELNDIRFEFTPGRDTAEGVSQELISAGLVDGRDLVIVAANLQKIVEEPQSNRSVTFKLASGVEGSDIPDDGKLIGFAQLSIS

PIM2 (human) = PIM2 (human) (UniProt Q9P1W9)
CDK6 CCND1 (human) = CDK6 CCND1 (human) (UniProt Q00534+P24385)
ACVR1 (human) = ACVR1 (human) (UniProt Q04771)
PLK1 (human) = PLK1 (human) (UniProt P53350)
FLT4 (human) = FLT4 (human) (UniProt P35916)
BMX (human) = BMX (human) (UniProt P51813)
TAOK2 (human) = TAOK2 (human) (UniProt Q9UL54)
STK33 (human) = STK33 (human) (UniProt Q9BYT3)
CSK (human) = CSK (human) (UniProt P41240)
GSK3A (human) = GSK3A (human) (UniProt P49840)
STK10 (human) = STK10 (human) (UniProt O94804)
STK10 (human), sequence (O94804 whole entry, looked up): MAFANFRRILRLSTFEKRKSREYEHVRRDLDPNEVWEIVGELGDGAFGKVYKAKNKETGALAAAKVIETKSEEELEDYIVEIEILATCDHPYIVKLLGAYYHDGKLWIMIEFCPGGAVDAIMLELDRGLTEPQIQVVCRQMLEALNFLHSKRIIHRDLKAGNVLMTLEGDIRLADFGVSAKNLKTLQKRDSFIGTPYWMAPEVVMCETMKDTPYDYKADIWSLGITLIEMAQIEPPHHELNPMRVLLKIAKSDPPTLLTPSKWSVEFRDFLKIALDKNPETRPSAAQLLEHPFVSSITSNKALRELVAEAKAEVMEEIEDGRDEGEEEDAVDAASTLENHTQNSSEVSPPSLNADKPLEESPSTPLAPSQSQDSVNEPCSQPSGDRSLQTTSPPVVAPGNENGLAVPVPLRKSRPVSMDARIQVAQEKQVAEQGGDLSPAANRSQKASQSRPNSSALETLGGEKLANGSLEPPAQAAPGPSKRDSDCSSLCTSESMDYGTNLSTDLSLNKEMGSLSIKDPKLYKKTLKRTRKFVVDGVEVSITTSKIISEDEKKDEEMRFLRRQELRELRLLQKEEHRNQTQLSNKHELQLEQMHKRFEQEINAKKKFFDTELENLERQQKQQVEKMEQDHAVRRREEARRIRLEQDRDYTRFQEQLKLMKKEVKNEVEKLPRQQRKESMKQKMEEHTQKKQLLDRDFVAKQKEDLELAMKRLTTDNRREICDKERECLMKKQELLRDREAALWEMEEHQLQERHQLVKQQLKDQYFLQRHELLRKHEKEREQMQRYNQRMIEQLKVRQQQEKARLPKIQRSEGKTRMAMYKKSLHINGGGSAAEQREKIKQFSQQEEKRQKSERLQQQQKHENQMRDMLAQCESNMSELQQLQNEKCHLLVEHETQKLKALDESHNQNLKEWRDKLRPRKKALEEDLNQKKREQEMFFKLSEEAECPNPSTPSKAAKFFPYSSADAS

CSNK1G1 (human) = CSNK1G1 (human) (UniProt Q9HCP0)
DMPK (human) = DMPK (human) (UniProt Q09013)
NEK4 (human) = NEK4 (human) (UniProt P51957)
JAK3 JH1 JH2 (human) = JAK3 JH1 JH2 (human) (UniProt P52333)
JAK2 JH1 JH2 (human) = JAK2 JH1 JH2 (human) (UniProt O60674)
LRRK2 (human) = LRRK2 (human) (UniProt Q5S007)
TEC (human) = TEC (human) (UniProt P42680)
CDK5 CDK5R1 p25 (human) = CDK5 CDK5R1 p25 (human) (UniProt Q15078+Q00535)
CSNK2A1 (human) = CSNK2A1 (human) (UniProt P68400)
MAP3K9 (human) = MAP3K9 (human) (UniProt P80192)
PTK2 (human) = PTK2 (human) (UniProt Q05397)
MAPK13 (human) = MAPK13 (human) (UniProt O15264)
PAK3 (human) = PAK3 (human) (UniProt O75914)
PAK3 (human), sequence (O75914 whole entry, looked up): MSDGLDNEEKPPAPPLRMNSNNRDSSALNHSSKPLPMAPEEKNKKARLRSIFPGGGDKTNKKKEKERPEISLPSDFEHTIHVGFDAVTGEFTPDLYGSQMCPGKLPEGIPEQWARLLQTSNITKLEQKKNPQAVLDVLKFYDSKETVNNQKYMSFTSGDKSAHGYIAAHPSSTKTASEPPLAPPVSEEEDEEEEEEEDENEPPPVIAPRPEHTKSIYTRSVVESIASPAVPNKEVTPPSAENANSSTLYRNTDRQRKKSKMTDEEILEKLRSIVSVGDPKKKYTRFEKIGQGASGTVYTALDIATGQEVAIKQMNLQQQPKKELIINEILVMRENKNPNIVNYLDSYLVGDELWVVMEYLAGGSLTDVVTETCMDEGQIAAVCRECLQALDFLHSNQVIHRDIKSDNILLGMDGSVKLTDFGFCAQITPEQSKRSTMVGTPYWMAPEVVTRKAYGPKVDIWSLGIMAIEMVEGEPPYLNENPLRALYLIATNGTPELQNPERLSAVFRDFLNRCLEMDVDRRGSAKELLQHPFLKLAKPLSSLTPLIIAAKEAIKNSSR

AKT1 (human) = AKT1 (human) (UniProt P31749)
DAPK3 (human) = DAPK3 (human) (UniProt O43293)
DAPK3 (human), sequence (O43293 whole entry, looked up): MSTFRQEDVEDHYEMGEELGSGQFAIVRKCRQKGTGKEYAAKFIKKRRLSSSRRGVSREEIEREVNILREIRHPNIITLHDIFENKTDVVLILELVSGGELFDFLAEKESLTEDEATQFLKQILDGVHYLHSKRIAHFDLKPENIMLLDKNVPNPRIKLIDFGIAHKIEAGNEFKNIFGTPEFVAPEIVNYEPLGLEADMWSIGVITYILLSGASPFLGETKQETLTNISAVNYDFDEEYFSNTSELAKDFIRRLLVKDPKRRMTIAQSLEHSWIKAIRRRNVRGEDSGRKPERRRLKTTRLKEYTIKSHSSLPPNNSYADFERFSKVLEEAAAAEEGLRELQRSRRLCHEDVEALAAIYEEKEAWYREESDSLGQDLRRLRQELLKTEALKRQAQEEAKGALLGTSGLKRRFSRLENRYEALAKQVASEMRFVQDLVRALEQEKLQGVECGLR

GSG2 (human) = GSG2 (human) (UniProt Q8TF76)
FLT3 (human) = FLT3 (human) (UniProt P36888)
CSF1R (human) = CSF1R (human) (UniProt P07333)
NEK3 (human) = NEK3 (human) (UniProt P51956)
SYK (human) = SYK (human) (UniProt P43405)

FES (human), sequence (P07332 whole entry, looked up): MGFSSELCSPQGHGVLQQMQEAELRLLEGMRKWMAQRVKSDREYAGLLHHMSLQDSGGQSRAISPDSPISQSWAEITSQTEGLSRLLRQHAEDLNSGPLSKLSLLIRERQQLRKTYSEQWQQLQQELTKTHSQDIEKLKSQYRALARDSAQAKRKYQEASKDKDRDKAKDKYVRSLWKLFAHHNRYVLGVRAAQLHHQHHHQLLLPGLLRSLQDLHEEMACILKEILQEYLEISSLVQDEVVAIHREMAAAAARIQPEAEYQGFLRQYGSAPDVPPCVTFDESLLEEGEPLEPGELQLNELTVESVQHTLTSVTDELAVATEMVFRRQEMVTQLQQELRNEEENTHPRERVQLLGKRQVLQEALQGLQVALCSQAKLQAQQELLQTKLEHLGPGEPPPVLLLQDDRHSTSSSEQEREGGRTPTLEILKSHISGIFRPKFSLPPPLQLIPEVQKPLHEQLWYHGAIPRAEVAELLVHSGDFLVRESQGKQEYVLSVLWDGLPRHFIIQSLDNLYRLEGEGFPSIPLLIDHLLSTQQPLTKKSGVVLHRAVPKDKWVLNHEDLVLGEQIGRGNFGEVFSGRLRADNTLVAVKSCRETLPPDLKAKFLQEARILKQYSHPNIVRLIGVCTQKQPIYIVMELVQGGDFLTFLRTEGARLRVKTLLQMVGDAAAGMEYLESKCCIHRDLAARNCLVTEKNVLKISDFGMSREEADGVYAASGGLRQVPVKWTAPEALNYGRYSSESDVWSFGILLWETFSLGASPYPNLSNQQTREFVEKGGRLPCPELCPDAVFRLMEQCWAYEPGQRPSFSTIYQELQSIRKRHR
CDK4 CCND1 (human), sequence (P11802 whole entry, looked up): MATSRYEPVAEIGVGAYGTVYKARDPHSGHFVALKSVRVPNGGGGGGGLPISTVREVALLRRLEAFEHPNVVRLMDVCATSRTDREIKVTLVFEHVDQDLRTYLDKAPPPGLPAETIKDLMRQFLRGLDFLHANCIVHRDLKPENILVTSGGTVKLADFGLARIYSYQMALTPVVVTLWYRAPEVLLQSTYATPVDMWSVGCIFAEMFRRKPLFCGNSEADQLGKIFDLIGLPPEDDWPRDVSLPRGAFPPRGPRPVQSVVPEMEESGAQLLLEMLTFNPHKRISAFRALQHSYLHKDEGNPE
CDK4 CCND1 (human), sequence (P24385 whole entry, looked up): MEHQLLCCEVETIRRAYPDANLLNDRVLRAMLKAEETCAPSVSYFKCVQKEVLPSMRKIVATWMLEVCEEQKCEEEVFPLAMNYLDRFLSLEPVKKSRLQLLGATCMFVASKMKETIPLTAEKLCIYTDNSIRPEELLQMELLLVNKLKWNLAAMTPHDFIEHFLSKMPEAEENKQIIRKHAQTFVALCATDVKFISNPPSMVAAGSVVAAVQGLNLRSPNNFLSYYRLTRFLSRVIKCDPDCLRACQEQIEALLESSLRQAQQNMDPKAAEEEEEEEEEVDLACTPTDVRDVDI
CSNK1G3 (human), sequence (Q9Y6M4 whole entry, looked up): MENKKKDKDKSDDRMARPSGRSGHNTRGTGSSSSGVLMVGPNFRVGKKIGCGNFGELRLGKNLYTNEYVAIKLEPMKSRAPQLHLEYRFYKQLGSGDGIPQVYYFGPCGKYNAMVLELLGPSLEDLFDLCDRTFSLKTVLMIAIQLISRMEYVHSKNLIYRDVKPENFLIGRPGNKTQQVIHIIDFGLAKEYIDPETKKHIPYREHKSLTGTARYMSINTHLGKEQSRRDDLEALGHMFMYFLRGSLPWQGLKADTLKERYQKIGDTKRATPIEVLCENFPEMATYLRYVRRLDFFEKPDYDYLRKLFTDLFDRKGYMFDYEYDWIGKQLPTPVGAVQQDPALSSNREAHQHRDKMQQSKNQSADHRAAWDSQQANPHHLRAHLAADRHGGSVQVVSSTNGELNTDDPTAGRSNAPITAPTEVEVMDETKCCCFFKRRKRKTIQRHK

residual activity (MAP4K5 (human)): 102%
residual activity (FES (human)): 99%
residual activity (CDK4 CCND1 (human)): 94.5%
residual activity (PAK6 (human)): 102%
residual activity (STK24 (human)): 82%
residual activity (MKNK1 (human)): 97%
residual activity (CSNK1G3 (human)): 98%
residual activity (PKN2 (human)): 89.5%
residual activity (ADRBK1 (human)): 108%
residual activity (STK25 (human)): 93%
residual activity (YES1 (human)): 78.5%
residual activity (PRKCA (human)): 106%
residual activity (OXSR1 (human)): 92.5%
residual activity (PIM2 (human)): 99%
residual activity (CDK6 CCND1 (human)): 106%
residual activity (ACVR1 (human)): 92.5%
residual activity (PLK1 (human)): 98.5%
residual activity (FLT4 (human)): 82.5%
residual activity (BMX (human)): 102%
residual activity (TAOK2 (human)): 103%
residual activity (STK33 (human)): 94.5%
residual activity (CSK (human)): 89.5%
residual activity (GSK3A (human)): 102%
residual activity (STK10 (human)): 90%
residual activity (CSNK1G1 (human)): 110%
residual activity (DMPK (human)): 100%
residual activity (NEK4 (human)): 95.5%
residual activity (JAK3 JH1 JH2 (human)): 95.5%
residual activity (JAK2 JH1 JH2 (human)): 91.5%
residual activity (LRRK2 (human)): 99%
residual activity (TEC (human)): 81.5%
residual activity (CDK5 CDK5R1 p25 (human)): 97.5%
residual activity (CSNK2A1 (human)): 110%
residual activity (MAP3K9 (human)): 92.5%
residual activity (PTK2 (human)): 91.5%
residual activity (MAPK13 (human)): 95%
residual activity (PAK3 (human)): 93.5%
residual activity (AKT1 (human)): 91%
residual activity (DAPK3 (human)): 106%
residual activity (GSG2 (human)): 98%
residual activity (FLT3 (human)): 87.5%
residual activity (CSF1R (human)): 95%
residual activity (NEK3 (human)): 107%
residual activity (SYK (human)): 89%
SMILES: CC[C@H](C)n1cc(C)c2c(C(=O)NCc3c(C)cc(C)[nH]c3=O)cc(-c3ccc(N4CCNCC4)nc3)cc21
